In one experiment the target is T1, NPM-ALK-BaF3 (Homo sapiens, UniProt Q9UM73).
T1 construct: NPM (nuclear phosphoprotein / nucleophosmin, NPM1, P06748) fusion partner; expressed in transfected cells; host or cells: BaF3; the other entry of the earlier key: NPM1 (P06748, Nucleophosmin)
T1 sequence (Q9UM73 with tags, fused parts or gaps): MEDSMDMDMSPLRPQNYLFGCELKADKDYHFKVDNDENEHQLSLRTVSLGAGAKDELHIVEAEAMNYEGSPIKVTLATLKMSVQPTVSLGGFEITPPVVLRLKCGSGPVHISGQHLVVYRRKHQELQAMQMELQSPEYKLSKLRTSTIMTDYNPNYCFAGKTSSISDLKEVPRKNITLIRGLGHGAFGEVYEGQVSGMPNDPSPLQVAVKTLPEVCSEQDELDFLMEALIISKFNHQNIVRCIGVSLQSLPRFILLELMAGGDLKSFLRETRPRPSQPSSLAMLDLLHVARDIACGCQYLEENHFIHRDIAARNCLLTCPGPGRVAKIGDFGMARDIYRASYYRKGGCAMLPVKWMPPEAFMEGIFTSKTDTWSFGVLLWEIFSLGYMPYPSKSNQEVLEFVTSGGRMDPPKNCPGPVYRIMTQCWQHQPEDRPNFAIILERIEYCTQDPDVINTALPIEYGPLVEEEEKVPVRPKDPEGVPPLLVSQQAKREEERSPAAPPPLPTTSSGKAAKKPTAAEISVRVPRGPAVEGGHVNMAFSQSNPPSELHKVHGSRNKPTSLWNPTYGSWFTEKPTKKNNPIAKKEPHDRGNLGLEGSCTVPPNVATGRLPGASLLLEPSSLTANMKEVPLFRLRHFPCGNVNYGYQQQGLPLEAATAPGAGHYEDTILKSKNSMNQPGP
In words: Growth inhibition of BaF3 cells stably transfected with kinase NPM-ALK (MTS). The experiment is classed as cell-based. The conditions noted are these: compound concentration 3.3 μM, read-out: cell growth inhibition rate, NPM-ALK. Here is the method:
(§1) The specific test method is given as follows:
(§2) 2) Reagent: MTS reaction solution (containing 2 mg/mL of MTS [3-(4,5-dimethylthiazol-2-yl)-5-(3-carboxymethoxyphenyl)-2-(4-sulfophenyl)-2H-tetra zolium, inner Salt]; 100 µg/mL PES ([…])).
As for `COc1cc(C2CCN(C)CC2)c(C)cc1Nc1nc(Nc2ccccc2S(C)(=O)=O)c2sccc2n1` [IA-5], the inhibition at 3.3 µM was 90.9%. On to `CC(C)S(=O)(=O)c1ccccc1Nc1nc(Nc2ccc(N3CCN(C)CC3)cc2)nc2ccsc12` [IB-3], for which the inhibition at 3.3 µM worked out at 94.2%. Regarding `CC(C)S(=O)(=O)c1ccccc1Nc1nc(Nc2ccc(N3CCC(O)CC3)cc2)nc2ccsc12` [IB-4], the inhibition at 3.3 µM came to 96%. For `COc1cc(C2CCN(C)CC2)c(C)cc1Nc1nc(Nc2ccccc2S(=O)(=O)C(C)C)c2sccc2n1` [IB-5], the inhibition at 3.3 µM is 88.9%. Consider `CC(C)S(=O)(=O)c1ccccc1Nc1nc(Nc2ccc(N3CCC(N4CCN(C)CC4)CC3)cc2)nc2ccsc12` [IB-6], for which the inhibition at 3.3 µM came to 93.2%. On the same count and under the same terms, for `COc1cc(N2CCC(N3CCCC3)CC2)ccc1Nc1nc(Nc2ccccc2S(=O)(=O)C(C)C)c2sccc2n1` [IB-7] the value was 92.8%; for `COc1cc(N2CCN(C)CC2)ccc1Nc1nc(Nc2ccccc2S(=O)(=O)C(C)C)c2sccc2n1` [IB-8], 83.7%. With `Cc1cc(Nc2nc(Nc3ccccc3S(=O)(=O)C(C)C)c3sccc3n2)c(OC(C)C)cc1C1CCN(C)CC1` [IB-9], the inhibition at 3.3 µM was 88.5%. Same read-out and setting: for `CC(C)S(=O)(=O)c1ccccc1Nc1nc(Nc2ccc(S(=O)(=O)N3CCC(O)CC3)cc2)nc2ccsc12` [IB-11] the value was 60.9%; for `CC(C)S(=O)(=O)c1ccccc1Nc1nc(Nc2ccc(N3CCC(O)CC3)cn2)nc2ccsc12` [IB-12], 55.9%; for `CCOc1cc(C(=O)N2CCC(N3CCN(C)CC3)CC2)ccc1Nc1nc(Nc2ccccc2S(=O)(=O)C(C)C)c2sccc2n1` [IB-13], 90.3%. As for `CC(C)S(=O)(=O)c1ccccc1Nc1nc(Nc2ccc(N3CCOCC3)cc2)nc2ccsc12` [IB-15], the inhibition at 3.3 µM came out at 83.3%. On to `CC(C)S(=O)(=O)c1ccccc1Nc1nc(Nc2ccc(N3CCOCC3)nc2)nc2ccsc12` [IB-16], for which the inhibition at 3.3 µM came out at 77.5%. With `CCOc1cc(N2CCC(O)CC2)ccc1Nc1nc(Nc2ccccc2S(=O)(=O)C(C)C)c2sccc2n1` [IB-17], the inhibition at 3.3 µM was 86%. Consider `CC(C)Oc1cc(N2CCC(O)CC2)ccc1Nc1nc(Nc2ccccc2S(=O)(=O)C(C)C)c2sccc2n1` [IB-18], for which the inhibition at 3.3 µM worked out at 66.1%.

`COc1cc(N2CCC(O)CC2)ccc1Nc1nc(Nc2ccccc2S(=O)(=O)C(C)C)c2sccc2n1` [IB-19]: the inhibition at 3.3 µM stood at 84.9%.

As to `CC(C)S(=O)(=O)c1ccccc1Nc1nc(Nc2ccc(OCc3ccccn3)cc2)nc2ccsc12` [IB-20], the inhibition at 3.3 µM stood at 66%. Consider `CC(C)S(=O)(=O)c1ccccc1Nc1nc(Nc2ccc(S(=O)(=O)N3CCN(C)CC3)cc2)nc2ccsc12` [IB-21], for which the inhibition at 3.3 µM came out at 72.1%. On to `COc1cc(C(=O)N2CCC(N3CCN(C)CC3)CC2)ccc1Nc1nc(Nc2ccccc2S(=O)(=O)C(C)C)c2sccc2n1` [IB-22], for which the inhibition at 3.3 µM is 87.3%. The same measure, in the same setting: for `CC(C)S(=O)(=O)c1ccccc1Nc1nc(Nc2ccc(N3CCC(O)CC3)nc2)nc2ccsc12` [IB-23] the value was 96.7%; for `CC(C)S(=O)(=O)c1ccccc1Nc1nc(Nc2ccc(N3CCN(C)CC3)cn2)nc2ccsc12` [IB-24], 97.4%; for `CC(C)S(=O)(=O)c1ccccc1Nc1nc(Nc2ccc(N3CCN(C(=O)OC(C)(C)C)CC3)cc2)nc2ccsc12` [IB-25], 61.4%. Consider `CC(C)S(=O)(=O)c1ccccc1Nc1nc(Nc2ccc(C(=O)N3CCN(C)CC3)cc2)nc2ccsc12` [IB-26], for which the inhibition at 3.3 µM was 97.3%. As for `CCOc1cc(N2CCN(C)CC2)ccc1Nc1nc(Nc2ccccc2S(=O)(=O)C(C)C)c2sccc2n1` [IB-28], the inhibition at 3.3 µM came to 96.5%. As for `CC(C)S(=O)(=O)c1ccccc1Nc1nc(Nc2ccc(C(=O)N3CCC(N4CCN(C)CC4)CC3)cc2)nc2ccsc12` [IB-29], the inhibition at 3.3 µM is 97.5%. Take `COc1cc2c(cc1Nc1nc(Nc3cn(C)nc3S(=O)(=O)C(C)C)c3sccc3n1)N(C(=O)CN(C)C)CC2` [IC-1]: the inhibition at 3.3 µM was 82.4%.

As for `COc1cc(N2CCC(N3CCN(C)CC3)CC2)ccc1Nc1nc(Nc2cn(C)nc2S(=O)(=O)C(C)C)c2sccc2n1` [IC-2], the inhibition at 3.3 µM turned out to be 55%. As for `CC(C)S(=O)(=O)c1nn(C)cc1Nc1nc(Nc2ccc(N3CCN(C)CC3)cc2)nc2ccsc12` [IC-3], the inhibition at 3.3 µM worked out at 46.5%. Take `CC(C)S(=O)(=O)c1nn(C)cc1Nc1nc(Nc2ccc(N3CCC(O)CC3)cc2)nc2ccsc12` [IC-4]: the inhibition at 3.3 µM was found to be 53.2%. For the molecule `COC(=O)c1cccc(Nc2nc(Nc3cc4c(cc3OC)CCN4C(=O)CN(C)C)nc3ccsc23)c1` [ID-1], the inhibition at 3.3 µM amounted to 73.4%.

Take `COC(=O)c1cccc(Nc2nc(Nc3ccc(N4CCN(C)CC4)cc3OC)nc3ccsc23)c1` [ID-2]: the inhibition at 3.3 µM is 44.7%.

As to `COc1cc2c(cc1Nc1nc(Nc3cccc(NS(C)(=O)=O)c3)c3sccc3n1)N(C(=O)CN(C)C)CC2` [IG-1], the inhibition at 3.3 µM is 22.2%.

As to `COc1cc(N2CCC(N3CCN(C)CC3)CC2)ccc1Nc1nc(Nc2cccc(NS(C)(=O)=O)c2)c2sccc2n1` [IG-2], the inhibition at 3.3 µM was determined as 17.4%. For the molecule `CS(=O)(=O)Nc1cccc(Nc2nc(Nc3ccc(N4CCC(O)CC4)cc3)nc3ccsc23)c1` [IG-3], the inhibition at 3.3 µM was 21.6%. For `CS(=O)(=O)Nc1cccc(Nc2nc(Nc3ccc(S(N)(=O)=O)cc3)nc3ccsc23)c1` [IG-6], the inhibition at 3.3 µM is 3.07%. For the molecule `COc1cc2c(cc1Nc1nc(Nc3ccccc3NS(C)(=O)=O)c3sccc3n1)N(C(=O)CN(C)C)CC2` [IH-1], the inhibition at 3.3 µM is 12.7%. The same measure, in the same setting: to `COc1cc(N2CCC(N3CCN(C)CC3)CC2)ccc1Nc1nc(Nc2ccccc2NS(C)(=O)=O)c2sccc2n1` [IH-2] belongs 85.1%. The same measure, in the same setting: for `COc1cc(N2CCN(C)CC2)ccc1Nc1nc(Nc2ccccc2NS(C)(=O)=O)c2sccc2n1` [IH-3] the value was 79.2%; for `CS(=O)(=O)Nc1ccccc1Nc1nc(Nc2ccc(N3CCC(O)CC3)cc2)nc2ccsc12` [IH-4], 26.7%. The same measure, in the same setting: to `CS(=O)(=O)Nc1ccccc1Nc1nc(Nc2ccc(S(N)(=O)=O)cc2)nc2ccsc12` [IH-7] belongs 15.1%; to `CNC(=O)c1ccccc1Nc1nc(Nc2ccc(N3CCC(N4CCN(C)CC4)CC3)cc2OC)nc2ccsc12` [II-1], 46.3%.

Regarding `CNC(=O)c1ccccc1Nc1nc(Nc2ccc(N3CCN(C)CC3)cc2)nc2ccsc12` [II-2], the inhibition at 3.3 µM was found to be 28.1%. As for `CNC(=O)c1ccccc1Nc1nc(Nc2ccc(N3CCN(C)CC3)cc2OC)nc2ccsc12` [II-3], the inhibition at 3.3 µM stood at 84.1%. Turning to `CCOc1cc(N2CCN(C)CC2)ccc1Nc1nc(Nc2ccccc2C(=O)NC)c2sccc2n1` [II-4], the inhibition at 3.3 µM is 46.6%.

For `CNC(=O)c1ccccc1Nc1nc(Nc2ccc(N3CCC(O)CC3)cc2)nc2ccsc12` [II-5], the inhibition at 3.3 µM is 31.6%.

In the case of `COc1cc2c(cc1Nc1nc(NCc3ccccc3S(C)(=O)=O)c3sccc3n1)N(C(=O)CN(C)C)CC2` [IL-1], the inhibition at 3.3 µM was 73.7%. For `COc1cc(N2CCC(N3CCN(C)CC3)CC2)ccc1Nc1nc(NCc2ccccc2S(C)(=O)=O)c2sccc2n1` [IL-2], the inhibition at 3.3 µM amounted to 54.8%.

Consider `CN1CCN(c2ccc(Nc3nc(NCc4ccccc4S(C)(=O)=O)c4sccc4n3)cc2)CC1` [IL-3], for which the inhibition at 3.3 µM was determined as 56.8%. For `CS(=O)(=O)c1ccccc1CNc1nc(Nc2ccc(N3CCC(O)CC3)cc2)nc2ccsc12` [IL-4], the inhibition at 3.3 µM stood at 45.8%. Regarding `COc1cc2c(cc1Nc1nc(NCc3ccccc3S(=O)(=O)C(C)C)c3sccc3n1)N(C(=O)CN(C)C)CC2` [IM-1], the inhibition at 3.3 µM amounted to 94.2%. On the same count and under the same terms, to `COc1cc(N2CCC(N3CCN(C)CC3)CC2)ccc1Nc1nc(NCc2ccccc2S(=O)(=O)C(C)C)c2sccc2n1` [IM-2] belongs 20.6%; to `CC(C)S(=O)(=O)c1ccccc1CNc1nc(Nc2ccc(N3CCN(C)CC3)cc2)nc2ccsc12` [IM-3], 52.5%; to `CC(C)S(=O)(=O)c1ccccc1CNc1nc(Nc2ccc(N3CCC(O)CC3)cc2)nc2ccsc12` [IM-4], 53.1%.

The target in a further experiment is T2, EML4-ALK-BaF3 (Homo sapiens, UniProt Q9UM73).
T2 construct: EML4 (echinoderm microtubule associated protein like 4, Q9HC35) fusion partner; expressed in transfected cells; host or cells: BaF3; the other entry of the earlier key: EML4 (Q9HC35, Echinoderm microtubule-associated protein-like 4)
T2 sequence (Q9UM73 1058-1620 limits assumed): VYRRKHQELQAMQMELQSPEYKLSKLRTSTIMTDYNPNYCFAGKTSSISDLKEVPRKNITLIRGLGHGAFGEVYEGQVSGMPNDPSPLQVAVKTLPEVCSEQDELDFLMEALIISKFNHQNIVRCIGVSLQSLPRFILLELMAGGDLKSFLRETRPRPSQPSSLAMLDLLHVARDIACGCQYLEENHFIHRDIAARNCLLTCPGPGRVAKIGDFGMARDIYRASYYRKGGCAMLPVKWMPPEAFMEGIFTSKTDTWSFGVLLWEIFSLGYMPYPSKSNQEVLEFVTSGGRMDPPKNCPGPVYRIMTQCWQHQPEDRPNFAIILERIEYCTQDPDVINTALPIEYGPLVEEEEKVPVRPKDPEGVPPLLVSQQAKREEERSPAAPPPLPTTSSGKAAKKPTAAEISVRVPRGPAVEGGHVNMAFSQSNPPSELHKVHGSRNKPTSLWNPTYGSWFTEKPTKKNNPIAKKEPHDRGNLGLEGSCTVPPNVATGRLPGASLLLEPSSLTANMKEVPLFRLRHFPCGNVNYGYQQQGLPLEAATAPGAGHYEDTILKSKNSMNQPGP
In words: Growth inhibition of BaF3 cells stably transfected with kinase EML4-ALK (MTS). Type of experiment: cell-based. The conditions noted are these: compound concentration 3.3 μM, read-out: cell growth inhibition rate, EML4-ALK. Here is the method:
as §1, §2
Regarding `COc1cc(N2CCC(N(C)C)CC2)ccc1Nc1nc(Nc2ccccc2S(=O)(=O)C(C)C)c2sccc2n1` [IB-31], the inhibition at 3.3 µM is 98.1%. As to `COc1ccc(NC(=O)CN(C)C)cc1Nc1nc(Nc2ccccc2S(=O)(=O)C(C)C)c2sccc2n1` [IB-32], the inhibition at 3.3 µM amounted to 95%. As for `COc1cc2c(cc1Nc1nc(Nc3ccccc3S(=O)(=O)C(C)C)c3sccc3n1)N(C(=O)CN1CCCC1)CC2` [IB-33], the inhibition at 3.3 µM was 98.3%. Take `COc1cc(F)c(NC(=O)CN(C)C)cc1Nc1nc(Nc2ccccc2S(=O)(=O)C(C)C)c2sccc2n1` [IB-35]: the inhibition at 3.3 µM was 96.8%. Take `COc1cc2c(cc1Nc1nc(Nc3ccccc3S(=O)(=O)C(C)(C)C)c3sccc3n1)N(C(=O)CN(C)C)CC2` [IO-1]: the inhibition at 3.3 µM stood at 97.1%. `COc1cc(N2CCC(N3CCN(C)CC3)CC2)ccc1Nc1nc(Nc2ccccc2S(=O)(=O)C(C)(C)C)c2sccc2n1` [IO-2]: the inhibition at 3.3 µM is 96%. Consider `COc1cc(N2CCN(C)CC2)ccc1Nc1nc(Nc2ccccc2S(=O)(=O)C(C)(C)C)c2sccc2n1` [IO-3], for which the inhibition at 3.3 µM amounted to 98.7%. Regarding `COc1cc(N2CCC(N(C)C)CC2)ccc1Nc1nc(Nc2ccccc2S(=O)(=O)C(C)(C)C)c2sccc2n1` [IO-4], the inhibition at 3.3 µM amounted to 97%. The same measure, in the same setting: for `COc1cc(N2CCC(N3CCN(C)CC3)CC2)ccc1Nc1nc(Nc2ccccc2C(=O)NC(C)C)c2sccc2n1` [IP-1] the value was 97.4%; for `COc1cc(N2CCN(C)CC2)ccc1Nc1nc(Nc2ccccc2C(=O)NC(C)C)c2sccc2n1` [IP-2], 97.3%.
